Entries after “also recorded” stand apart in the source; their conditions may differ.
Columns and labels:
Aurora A = assay: Expression of Aurora kinases by Western blot in KCL-22M cells; type: cell-based, human; settings: two days of drug treatment
KCL-22 cells [1] = assay: Resistance assay: relapse of KCL-22 cells in prolonged liquid culture (CML acquired resistance model); type: cell-based, human; settings: for relapse of KCL-22 cells on imatinib (STI-571) in combination with the inhibitor: prolonged culture; for relapse of KCL-22 cells on 5 μM STI-571 in combination / cell death by the inhibitor alone: 300 μM splitomicin or 15 mM nicotinamide; for cell death by the inhibitor alone: first two weeks
Description: (§1) Cells were maintained in these cultures without changing medium.
Cells were maintained in these cultures without changing medium. Aliquots of cells were taken out at specified time points and cell numbers counted using a hematocytometer. Cell viability was accessed by trypan blue exclusion where necessary.

SD1 cells = assay: Resistance assay in BCR-ABL positive ALL cells; type: cell-based, human; settings: 50 μM sirtinol alone or in combination with STI-571, prolonged culture
Experimental: as §1
The ability of sirtinol and imatinib to block resistance related to BCR-ABL mutations and non-mutants was determined in acute lymphocytic leukemia (ALL) cells.

K562 cells [2] = assay: Growth factor-induced transient resistance (serum-free medium, basic supplements, insulin); type: cell-based, human
Experimental: (A) Growth curves of K562 cells in serum medium, and serum-free medium supplied with basic supplements containing 5 μg/ml insulin and 5 μg/ml transferrin (basic) with or without 75 ng/ml EGF, 25 μg/ml HDL or both (EH). […] Relative survival of imatinib treated cells was calculated by comparison to no drug treatment. Pre-incubation for two days renders resistance. […] Since sirtinol is insoluble in SF medium, HDL 25 μg/ml was added to help dissolve the drug. (D) Effects of basic supplements in serum medium. […] Viable cells were counted one and three days after the treatment. […] (F) Effects of insulin in resistance.
Whether serum-free medium supplied with select growth factors provides a better culture environment for developing CML chemoresistance was determined. Serum-free (SF) medium with insulin, transferring, epidermal growth factor (EGF) and high density lipoprotein (HDL) was used. SF medium with the basic supplements (5 μg/ml insulin and 5 μg/ml transferring) was sufficient to support growth of both K562 cells (FIG. 13A) and KCL-22 cells. […] Sirtinol is able to overcome CML resistance in SF culture.
Transient resistance conferred by insulin and transferrin supplement is of interest as insulin receptor is overexpressed in about 90% primary CML cells. The key insulin downstream target phosphatidylinositol-3 kinase (PI3K) is required for BCR-ABL mediated transformation and inhibition of PI3K-Akt-mTor pathway has been explored to overcome CML chemoresistance. SIRT1 is a key gene for regulating insulin secretion and directly regulates Akt downstream target FOXO proteins through deacetylation. Therefore, the effect of insulin itself for transient resistance to imatinib and the response of sirtinol treatment were examined.

KCL-22 cells [3] = assay: Cell growth, apoptosis (annexin V) and cell cycle analysis; type: cell-based, human
Experimental: (§2) One half million cells per well were seeded in a 24-well plate and at 2 and 4 days after initiation of drug treatment, surviving cells were counted (A, B). […] The percentage of annexin V positive cells including early and late apoptotic cells was plotted underneath FACS charts.
(§3) Cell apoptosis was analyzed with annexin V kit (BD Pharminggen) as per the manufacturer's instruction.

K562 cells [4] = assay: as above; type: cell-based, human
Experimental: as §2, §3

Solubility = type: physicochemical
[5] = system: CML patients with T315I mutation; settings: human, in vivo; cited from earlier work
BCR-ABL mutants = settings: cited from earlier work
FOXO1 = assay: Flow cytometry assay of acetylation of FOXO1 in KCL-22 cells; type: cell-based, human; settings: compound treatment for 24 h
Experimental: SIRT1 inhibitor-induced acetylation of cellular SIRT1 substrates, Ku70 and FOXO proteins, are determined by immunoprecipitation of these proteins followed by Western blot analysis for acetyl lysine. Acetylation of FOXO1 is also directly examined by flow cytometry-based analysis as done in FIG. 40D.

SIRT1 = molecular target: T1, SIRT1 (Homo sapiens, UniProt Q96EB6); assay: FRET-based SIRT1 inhibition assay; settings: All compounds in 50 μM
T1 sequence (Q96EB6 1-747): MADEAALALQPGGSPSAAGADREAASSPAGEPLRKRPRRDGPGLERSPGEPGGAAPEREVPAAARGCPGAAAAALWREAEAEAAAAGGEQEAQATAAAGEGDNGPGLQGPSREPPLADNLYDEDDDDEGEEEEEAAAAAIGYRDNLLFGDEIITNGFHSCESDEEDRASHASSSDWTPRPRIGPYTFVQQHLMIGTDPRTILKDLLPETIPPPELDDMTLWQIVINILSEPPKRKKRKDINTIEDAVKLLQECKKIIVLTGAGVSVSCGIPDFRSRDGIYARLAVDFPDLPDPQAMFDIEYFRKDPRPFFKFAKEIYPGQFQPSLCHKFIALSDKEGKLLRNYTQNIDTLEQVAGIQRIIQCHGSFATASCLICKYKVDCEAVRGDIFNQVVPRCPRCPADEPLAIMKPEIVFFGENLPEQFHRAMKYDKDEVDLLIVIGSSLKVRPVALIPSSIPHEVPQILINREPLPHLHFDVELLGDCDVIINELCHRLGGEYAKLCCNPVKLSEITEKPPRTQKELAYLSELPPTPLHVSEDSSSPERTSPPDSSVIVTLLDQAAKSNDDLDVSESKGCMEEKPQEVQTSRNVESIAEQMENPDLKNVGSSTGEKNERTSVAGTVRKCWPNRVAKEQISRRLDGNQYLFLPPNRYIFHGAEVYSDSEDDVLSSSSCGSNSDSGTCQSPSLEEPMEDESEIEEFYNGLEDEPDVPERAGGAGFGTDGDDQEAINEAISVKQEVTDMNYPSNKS

HIC1 = HIC1 expression / SIRT1 level after HDAC and DNMT inhibitors; type: cell-based, human; settings: KCL-22 cells, alone or in combination
Description: Total cellular RNA with Trizol (Invitrogen) using a standard protocol. First strand DNA was synthesized and HIC1 expression by quantitative real-time RT-PCR using a kit with SYBR Green label (Invitrogen) as per the manufacture's instruction on a BioRad machine OPTICON. The following are the HIC1 primers (spanning introns), 5′-[…]-3′(exon 1a) and 5′-[…]-3′ (Exon 2). [>ref|NT—010718.15|Hs17—10875:1561637-1565694 Homo sapiens chromosome 17 genomic contig, reference assembly]
SIRT1 expression was analyzed by Western blot using 1:5000 diluted rabbit monoclonal SIRT1 antibody (Epitomics). Controls used were GAPDH or actin as loading controls with rabbit anti-GAPDH (Trevigen) or anti-actin (Sigma) at 1:5000 dilution. GAPDH [>ref|NT—009759.15|Hs12—9916:6497433-6502281 Homo sapiens chromosome 12 genomic contig, reference assembly] primers used are as follows: […]

[6] = 50 μM sirtinol with 1 μM STI-571
[7] = two days treatment, PI staining

## CC(NC(=O)c1ccccc1/N=C/c1c(O)ccc2ccccc12)c1ccccc1 (centres unmarked) [sirtinol]
Aurora A
  Aurora A protein in KCL-22M cells: degraded
KCL-22 cells [1]
  recurrence on nilotinib or dasatinib in combination with SIRT1 inhibitor: effectively blocked the recurrence
  relapse on 1 μM Dasatinib in combination with sirtinol: blocked relapse
  relapse on […] Nilotinib in combination with SIRT1 inhibitor: blocked relapse
  relapse of KCL-22 cells on imatinib (STI-571) in combination with the inhibitor: blocks relapse
KCL-22 cells [1]; 50 μM sirtinol alone
  relapse on sirtinol alone: resulted in relapse after two weeks
KCL-22 cells [1]; listed as Sirtinol
  relapse of KCL-22 cells on imatinib (STI-571) in combination with the inhibitor: blocked relapse at all dosages of STI-571
SD1 cells
  effect of sirtinol on SD1 cells: eliminated these cells
K562 cells [2]; 50 μM sirtinol
  transient resistance to 1 μM STI-571 from basic supplements in serum medium: abolished this transient resistance
K562 cells [2]; sirtinol alone or in combination with STI-571
  transient resistance to 1 μM STI-571 from insulin: abolished this transient resistance
K562 cells [2]; sirtinol alone or with STI-571, K562 and KCL-22 cells, no relapse
  cell killing in SF culture: rapid killing
KCL-22 cells [3]; 50 μM sirtinol alone
  cell growth: inhibited the growth
KCL-22 cells [3]; [6]
  growth inhibition, combination: synergized their inhibitory effects
KCL-22 cells [3]; sirtinol alone
  apoptosis (annexin V): significantly induced annexin V positive apoptotic cells
KCL-22 cells [3]; sirtinol combined with STI-571
  apoptosis (annexin V), combination: induced more dramatic apoptosis than each individual drug
KCL-22 cells [3]; [7]
  cell cycle: reducing S/G2 and increasing sub-G1 population
K562 cells [4]; 50 μM sirtinol alone
  cell growth: inhibited the growth
K562 cells [4]; [6]
  growth inhibition, combination: synergized their inhibitory effects
K562 cells [4]; sirtinol alone
  apoptosis (annexin V): significantly induced annexin V positive apoptotic cells
K562 cells [4]; sirtinol combined with STI-571
  apoptosis (annexin V), combination: induced more dramatic apoptosis than each individual drug
K562 cells [4]; [7]
  cell cycle: rapidly increased sub-G1 and apoptotic fraction
Solubility
  effective concentration in vivo (limited by solubility): not obtainable in vivo
Solubility; serum-free medium
  solubility in SF medium: insoluble
KCL-22M cells; 50 μM sirtinol with 1 μM AZA
  cell death of KCL-22M cells, combination: induced partial cell death
KCL-22M cells; sirtinol (50 μM) with STI-571 ([…])
  growth of KCL-22M cells, combination: able to inhibit cell growth

## Clc1ccc2nc(CCSCCc3nc4ccc(Cl)cc4[nH]3)[nH]c2c1 [compound 628445]
KCL-22 cells [1]
  prevention of CML cell relapse upon imatinib compared with sirtinol (50 μM): more effective in preventing CML cell relapse upon imatinib treatment than an effective dose of sirtinol

## Cc1cc(Nc2cc(N3CCN(C)CC3)nc(Sc3ccc(NC(=O)C4CC4)cc3)n2)n[nH]1 [VX-680]
[5]
  clinical response: Three CML patients with T315I mutation responded
BCR-ABL mutants
  inhibition of T315I BCR-ABL: potently inhibits

## NC(=O)c1cccnc1 [nicotinamide]
KCL-22 cells [1]
  lowest dose that blocked relapse on imatinib: 1 µM
  relapse of KCL-22 cells on 5 μM STI-571 in combination: effectively blocked; also recorded: blocked relapse
  cell death by the inhibitor alone: did not, by themselves, induce significant cell death
  relapse of KCL-22 cells on imatinib (STI-571) in combination with the inhibitor: blocks relapse

## O=C(NN=Cc1c(O)ccc2ccccc12)c1ccncc1 [compound 22, N′-((2-hydroxyl-1-naphthyl)methylene)isonicotinohydrazide]
KCL-22 cells [1]
  inhibitory activity (block of CML relapse) compared with compound 163580: better inhibitory activity than 163580
FOXO1
  acetylation of FOXO1: outperformed sirtinol and tenovin-6
SIRT1
  SIRT1 inhibition in FRET-based biochemical assay: outperformed sirtinol and tenovin-6

## CC(=O)N[C@@H](CS)C(=O)O [NAC, N-acetylcysteine]
KCL-22 cells [1]; 50 mM NAC
  cytotoxicity: significant cytotoxicity

## COc1ccc2nc3cc(Cl)ccc3c(NCCCCN3CCCC3)c2n1.Cl.Cl.Cl [compound 261408]
KCL-22 cells [1]
  prevention of CML cell relapse upon imatinib compared with sirtinol (50 μM): more effective in preventing CML cell relapse upon imatinib treatment than an effective dose of sirtinol
  toxicity to cells: too toxic to cells

## Nc1ncn([C@H]2C[C@H](O)[C@@H](CO)O2)c(=O)n1 [AZA, 5-aza-2-deoxycytidine]
HIC1
  reactivation of HIC1 expression / reduction of SIRT1 level: could not reactivate HIC1 expression or reduce SIRT1 level
KCL-22 cells [1]; 1 μM AZA with STI-571
  relapse on AZA plus STI-571: did successfully block relapse on 2.5 and 5 μM; also recorded: blocked relapse at 2.5 and 5 μM of STI-571
KCL-22M cells; 1 μM inhibitor
  growth of KCL-22M cells: inhibited its growth but did not promote significant cell death

## CC(=NNC(=O)c1ccncc1)c1ccc2ccccc2c1O [compound 24, N′-(1-(1-hydroxy-2-naphthyl)ethylidene)isonicotinohydrazide]
KCL-22 cells [1]
  inhibitory activity (block of CML relapse) compared with compound 163580: better inhibitory activity than 163580
FOXO1
  acetylation of FOXO1: outperformed sirtinol and tenovin-6
SIRT1
  SIRT1 inhibition in FRET-based biochemical assay: outperformed sirtinol and tenovin-6

## CCN(C(C)=O)c1cnc(C=NNC(N)=S)c2ccccc12 [compound 687305]
KCL-22 cells [1]
  prevention of CML cell relapse upon imatinib compared with sirtinol (50 μM): more effective in preventing CML cell relapse upon imatinib treatment than an effective dose of sirtinol

## O=C1CCc2c(ccc3ccccc23)O1 [splitomicin]
KCL-22 cells [1]
  relapse of KCL-22 cells on 5 μM STI-571 in combination: effectively blocked; also recorded: blocked relapse
  cell death by the inhibitor alone: did not, by themselves, induce significant cell death
  relapse of KCL-22 cells on imatinib (STI-571) in combination with the inhibitor: blocks relapse

## Cc1cn(-c2cc(NC(=O)c3ccc(C)c(Nc4nccc(-c5cccnc5)n4)c3)cc(C(F)(F)F)c2)cn1 [Nilotinib]
BCR-ABL mutants
  BCR-ABL mutants inhibited: inhibits most of the known mutants with the exception of the T315I mutation

## Oc1ccc2ccccc2c1C1=NNc2n[nH]c(=S)n2N1 [compound 163580]
KCL-22 cells [1]
  prevention of CML cell relapse upon imatinib compared with sirtinol (50 μM): more effective in preventing CML cell relapse upon imatinib treatment than an effective dose of sirtinol

— US9176114B2, “Cell culture model for acquired chemoresistance of chronic myelogenous leukemia and related methods for identifying agents to overcome resistance” (CITY OF HOPE, priority 2007, dated 2015)
